Measured values from patent US6461997B1, “Triazole sulfones having herbicidal activity” (Monsanto Technology LLC, priority 1999, dated 2002).

Assays:
[1] = test system: CHEAL (common lambsquarters); assay: Pre-emergence herbicidal activity, warm season; assay type: in vivo, Chenopodium album; conditions: GR80 = lowest tested rate (300, 100, 30, 10 g/ha) with 80% or greater inhibition; approx. 14 days after treating; 30/21° C.
Outline: (§1)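 GR80 values derive from percent inhibition relative to untreated plants, read roughly 14 days after sowing and pre-emergence soil-surface treatment (compound in 50:50 acetone/water; rates typically 10, 30, 100, 300 g/ha). Warm-season weeds grew at 30/21° C day/night, cool-season ones at 18/13° C; an asterisk marks activity without reaching 80% at the highest rate.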

[2] = test system: SETFA (giant foxtail); assay: Pre-emergence herbicidal activity, warm season; assay type: in vivo, Setaria faberi; conditions: GR80 = lowest tested rate (300, 100, 30, 10 g/ha) with 80% or greater inhibition; approx. 14 days after treating; 30/21° C.
Outline: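 Activity is expressed as the rate giving 80% inhibition, with 300, 100, 30 and 10 g/ha typically tested. An asterisk marks activity short of 80% at the top rate. Warm-season grasses were held at 30/21 °C; cool-season blackgrass and wild buckwheat at 18/13 °C; scoring at about 14 days.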

[3] = test system: DIGSA (large crabgrass); assay: Pre-emergence herbicidal activity, warm season; assay type: in vivo, Digitaria sanguinalis; conditions: GR80 = lowest tested rate (300, 100, 30, 10 g/ha) with 80% or greater inhibition; approx. 14 days after treating; 30/21° C.
Outline: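 Pre-emergence soil-surface spray; rates 300/100/30/10 g/ha; acetone:water 50:50 diluent. Warm-season species (PANMI, DIGSA) grown at 30/21 °C, cool-season species (ALOMY, POLCO) at 18/13 °C. Inhibition scored ~14 d after treatment versus untreated controls → GR80.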

[4] = test system: SINAR (wild mustard); assay: Pre-emergence herbicidal activity, cool season; assay type: in vivo, Sinapis arvensis; conditions: lowest tested rate with 80% or greater inhibition; rates 300, 100, 30, 10 g/ha; about 14 days
Outline: as §1

[5] = test system: ALOMY (blackgrass); assay: Pre-plant incorporated (PPI) herbicidal activity, cool season; assay type: in vivo, Alopecurus myosuroides
Description: (§2) In another set of tests, the pre-plant incorporated (PPI) activity of compounds of this invention was evaluated on the same species as for the pre-emergence tests described above. In the PPI tests the following procedure, designed to simulate PPI application, was used.
(§3) A pre-prepared topsoil mixture (described above) was placed in a pot and compacted to a depth of 1.0 to 1.25 cm from the top of the pot. Seeds of each of several monocotyledonous and dicotyledonous annual plant species were placed on top of the soil. A sufficient quantity of soil to cover the seeds and level fill the pot was weighed into an open container. A known amount of the test compound was dissolved or suspended in an organic solvent and applied by spraying to this cover soil. The cover soil was thoroughly mixed to distribute the test compound throughout the cover soil, and was then applied as a cover layer over the seeds. Untreated soil was used as a cover layer for control pots. After treatment the plants were placed in a greenhouse where they received 0.64 cm of overhead irrigation. All subsequent watering consisted of a light overhead mist and/or subirrigation as needed for germination and growth. Tables 9 and 10 below relate to warm season plant species which were placed after pre-emergence treatment in a greenhouse with a 30/21° C. day/night temperature regime. Tables 11 and 12 below relates to cool season plant species placed after pre-emergence treatment in a greenhouse or growth chamber with an 18/13° C. day/night temperature regime. Only the compounds of Examples 1, 6, 8, 11, 13 and 15-20 were included in PPI tests.
(§4) Approximately 14 days after planting and treating, the plants were observed and herbicidal efficacy recorded as percent inhibition by comparison with untreated plants.

[6] = test system: XANST (cocklebur); assay: Pre-plant incorporated (PPI) herbicidal activity, warm season; assay type: in vivo, Xanthium strumarium; conditions: PPI application
Description: as §2, §3, §4

[7] = test system: soybean (GLYMX); assay: Selectivity test, PPI, warm season crop; assay type: in vivo, Glycine max; conditions: PPI application
Description: as §3, §4
Additional pre-emergence and PPI tests were conducted by the procedures described above, on warm and cool season weed species in the presence of crop species, to assess herbicidal selectivity. Crop species included in warm season tests were corn (Zea mays, ZEAMX), rice (Oryza sativa, ORYSA) and soybean (Glycine max, GLYMX). Crop species included in cool season tests were wheat (Triticum aestivum, TRZAW), barley (Hordeunm vulgare, HORVX) and oilseed rape (Brassica napus, BRSNS).
Tables 15 and 16 relate to pre-emergence and PPI tests respectively on warm season species. Table 17 relates to pre-emergence tests on cool season species.

[8] = weed, PPI application, 100 g/ha
[9] = weed, PPI application, 300 g/ha
[10] = weed, PPI application, 900 g/ha

SMILES	Pre-emergence activity (GR80) CHEAL [1] [g/ha]	Pre-emergence activity (GR80) SETFA [2] [g/ha]	Pre-emergence activity (GR80) DIGSA [3] [g/ha]	Pre-emergence activity GR80, SINAR [4]	Percent inhibition ALOMY ([5]; weed, PPI application, 30 g/ha) [%]	Percent inhibition ALOMY [5, 8] [%]	Percent inhibition ALOMY [5, 9] [%]	Percent inhibition ALOMY [5, 10] [%]	Percent inhibition XANST ([6]; 30 g/ha) [%]	Percent inhibition XANST ([6]; 100 g/ha) [%]	Percent inhibition XANST ([6]; 300 g/ha) [%]	Percent inhibition XANST ([6]; 900 g/ha) [%]	Percent inhibition GLYMX ([7]; 30 g/ha) [%]	Percent inhibition GLYMX ([7]; 100 g/ha) [%]	Percent inhibition GLYMX ([7]; 300 g/ha) [%]	Percent inhibition GLYMX ([7]; 900 g/ha) [%]	other results
CCN(CC)C(=O)n1cnc(S(=O)(=O)C(F)(F)C(F)(F)Br)n1 [Example 4]	30	30	100	30 g/ha	70	95	100	100	0	0	0	40	0	0	0	10	–
CCSC(F)(F)S(=O)(=O)c1ncn(C(=O)N(CC)CC)n1 [Example 8, 1-(N,N-diethylcarbamoyl)-3-[difluoro(ethylthio)methylsulfonyl]-1,2,4-triazole]	100	100	100	[empty]	–	–	–	–	–	–	–	–	–	–	–	–	inhibition at 30 g/ha ([5]; Alopecurus myosuroides, weed, PPI application, 30 g/ha, read-out: Percent inhibition ALOMY): 0%; inhibition at 100 g/ha ([5]; Alopecurus myosuroides, weed, PPI application, 100 g/ha, read-out: Percent inhibition ALOMY): 95%; inhibition at 300 g/ha ([5]; Alopecurus myosuroides, weed, PPI application, 300 g/ha, read-out: Percent inhibition ALOMY): 100%; inhibition at 900 g/ha ([5]; Alopecurus myosuroides, weed, PPI application, 900 g/ha, read-out: Percent inhibition ALOMY): 100%; PPI activity GR80, ALOMY ([5]; pre-plant incorporated, lowest tested rate with 80% or greater inhibition, about 14 days): 100 g/ha; inhibition at 30 g/ha ([6]; Xanthium strumarium, 30 g/ha, read-out: Percent inhibition XANST): 0%; inhibition at 100 g/ha ([6]; Xanthium strumarium, 100 g/ha, read-out: Percent inhibition XANST): 0%; inhibition at 300 g/ha ([6]; Xanthium strumarium, 300 g/ha, read-out: Percent inhibition XANST): 20%; inhibition at 900 g/ha ([6]; Xanthium strumarium, 900 g/ha, read-out: Percent inhibition XANST): 50%; inhibition at 30 g/ha ([7]; Glycine max, 30 g/ha, read-out: Percent inhibition GLYMX): 0%; inhibition at 100 g/ha ([7]; Glycine max, 100 g/ha, read-out: Percent inhibition GLYMX): 10%; inhibition at 300 g/ha ([7]; Glycine max, 300 g/ha, read-out: Percent inhibition GLYMX): 40%; inhibition at 900 g/ha ([7]; Glycine max, 900 g/ha, read-out: Percent inhibition GLYMX): 65%
CCN(CC)C(=O)n1cnc(S(=O)(=O)C(F)(F)SC)n1 [Example 9]	300	100	100	300 g/ha	40	95	100	100	0	0	30	60	0	10	20	40	–
CCN(CC)C(=O)n1cnc(S(=O)(=O)C(F)(F)SCc2ccccc2)n1 [Example 10]	300	100	100	100 g/ha	50	100	95	100	0	0	0	10	0	0	10	70	Percent inhibition ALOMY ([5]; weed, PPI application, 10 g/ha): 0%; Percent inhibition XANST ([6]; 10 g/ha): 0%; Percent inhibition GLYMX ([7]; 10 g/ha): 0%
